Publication PMC9090415, “Discovery of small molecule inhibitors of Plasmodium falciparum apicoplast DNA polymerase” (Journal of Enzyme Inhibition and Medicinal Chemistry, 2022)

Target: T1, bacteriophage T4 DNA polymerase (Enterobacteria phage T4, UniProt P04415)
T1 construct: made in house
T1 sequence (P04415 1-898): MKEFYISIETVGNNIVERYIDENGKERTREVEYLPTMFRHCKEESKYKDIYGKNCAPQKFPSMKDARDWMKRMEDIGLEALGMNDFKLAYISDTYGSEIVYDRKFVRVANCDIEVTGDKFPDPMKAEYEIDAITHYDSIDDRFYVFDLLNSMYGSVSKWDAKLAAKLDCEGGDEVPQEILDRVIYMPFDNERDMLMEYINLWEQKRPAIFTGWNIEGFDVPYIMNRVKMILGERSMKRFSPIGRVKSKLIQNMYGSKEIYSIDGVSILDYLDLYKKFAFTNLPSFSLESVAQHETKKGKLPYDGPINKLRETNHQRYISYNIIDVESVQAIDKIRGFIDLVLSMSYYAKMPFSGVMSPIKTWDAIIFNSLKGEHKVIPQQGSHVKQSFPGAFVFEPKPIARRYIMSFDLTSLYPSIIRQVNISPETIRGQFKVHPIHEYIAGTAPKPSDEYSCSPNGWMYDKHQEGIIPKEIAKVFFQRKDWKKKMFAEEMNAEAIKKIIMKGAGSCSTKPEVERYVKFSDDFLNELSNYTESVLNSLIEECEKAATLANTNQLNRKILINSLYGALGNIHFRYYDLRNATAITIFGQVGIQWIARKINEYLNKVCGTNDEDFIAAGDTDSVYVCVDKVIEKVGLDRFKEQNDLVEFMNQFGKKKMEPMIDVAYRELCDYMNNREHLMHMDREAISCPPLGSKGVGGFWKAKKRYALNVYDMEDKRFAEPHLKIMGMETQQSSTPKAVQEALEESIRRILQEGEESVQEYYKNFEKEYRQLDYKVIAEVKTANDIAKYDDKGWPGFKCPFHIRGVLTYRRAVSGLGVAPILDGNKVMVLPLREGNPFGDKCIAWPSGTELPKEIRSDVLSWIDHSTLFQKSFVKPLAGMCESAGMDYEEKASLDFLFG
Assay: Counter-screen against bacteriophage T4 DNA polymerase
Type: biochemical
Conditions: for % inhibition T4 10' 2.5 / % inhibition T4 10' 5 / % inhibition T4 10' 10 / % inhibition T4 10' 20 / % inhibition T4 10' 40 / % inhibition T4 10' 80: read at 10'
Description: Codon-optimized, exonuclease-deficient Pf-apPOL was overexpressed in E. coli BL21 (DE3) and purified as described. The protein was dialysed against two, 1-liter changes of 20 mM Tris-HCl (pH 8.0), 400 mM NaCl, and 20% glycerol. Plasmodium bergei and Babesia bovis apPOLs (Pb-apPOL and Bb-apPOL, respectively) were codon-optimized, expressed, and purified as for Pf-apPOL[15]. Bacteriophage T4 DNA polymerase was purified as described. The DNA oligonucleotides used to make the high-throughput substrate were obtained from Integrated DNA Technologies. Deoxynucleotides were purchased from Strategene. All other materials came from Fisher Scientific.
Each compound was tested in a dose-response format to determine IC50 values. […] T4 DNA polymerase can be produced in large quantities, and is in the same family (B-family) as the replicative human DNA polymerases (α, δ, and ε)[20].

CC(=O)c1cc2c(N)c(/C(N)=N/C#N)sc2nc1C [KU0015866]
% inhibition T4 10' (DRC-2, concentration 2.5): -16% | % inhibition T4 10' (DRC-2, concentration 5): -17% | % inhibition T4 10' (DRC-2, concentration 10): -18% | % inhibition T4 10' (DRC-2, concentration 20): -17% | % inhibition T4 10' (DRC-2, concentration 40): -11% | % inhibition T4 10' (DRC-2, concentration 80): -21% | % inhibition T4 40' (DRC-2, concentration 2.5): -16% | % inhibition T4 40' (DRC-2, concentration 5): -17% | % inhibition T4 40' (DRC-2, concentration 10): -18% | % inhibition T4 40' (DRC-2, concentration 20): -17% | % inhibition T4 40' (DRC-2, concentration 40): -11% | % inhibition T4 40' (DRC-2, concentration 80): -21% | % inhibition T4 90' (DRC-2, concentration 5): -16% | % inhibition T4 90' (DRC-2, concentration 10): -18% | % inhibition T4 90' (DRC-2, concentration 20): -18% | % inhibition T4 90' (DRC-2, concentration 40): -11% | % inhibition T4 90' (DRC-2, concentration 80): -20% | % inhibition T4 180' (DRC-2, concentration 2.5): -20% | % inhibition T4 180' (DRC-2, concentration 5): -23% | % inhibition T4 180' (DRC-2, concentration 20): -23% | % inhibition T4 180' (DRC-2, concentration 40): -16%

O=C(CSc1nnc(-c2ccco2)[nH]1)c1ccc(Cl)cc1 [KU0029065]
% inhibition T4 40' (DRC-2, concentration 10): 3% | % inhibition T4 40' (DRC-2, concentration 40): -2% | % inhibition T4 90' (DRC-2, concentration 2.5): -13% | % inhibition T4 90' (DRC-2, concentration 20): 3% | % inhibition T4 180' (DRC-2, concentration 2.5): -13% | % inhibition T4 180' (DRC-2, concentration 10): -2%

COc1ccc(-c2n[nH]cc2Oc2ccc(Cl)cc2)c(O)c1 [KU0029837]
% inhibition T4 10' (DRC-2, concentration 2.5): -22% | % inhibition T4 10' (DRC-2, concentration 5): -28% | % inhibition T4 10' (DRC-2, concentration 10): -25% | % inhibition T4 10' (DRC-2, concentration 20): -25% | % inhibition T4 10' (DRC-2, concentration 40): -19% | % inhibition T4 10' (DRC-2, concentration 80): -34% | % inhibition T4 40' (DRC-2, concentration 2.5): -22% | % inhibition T4 40' (DRC-2, concentration 5): -28% | % inhibition T4 40' (DRC-2, concentration 10): -25% | % inhibition T4 40' (DRC-2, concentration 20): -25% | % inhibition T4 40' (DRC-2, concentration 40): -19% | % inhibition T4 40' (DRC-2, concentration 80): -34% | % inhibition T4 90' (DRC-2, concentration 2.5): -22% | % inhibition T4 90' (DRC-2, concentration 10): -26% | % inhibition T4 90' (DRC-2, concentration 20): -25% | % inhibition T4 90' (DRC-2, concentration 80): -34% | % inhibition T4 180' (DRC-2, concentration 2.5): -26% | % inhibition T4 180' (DRC-2, concentration 10): -30% | % inhibition T4 180' (DRC-2, concentration 20): -30%

Nc1cc(Oc2ccc(O)c(N)c2)ccc1O [KU0034728]
% inhibition T4 10' 2.5 (DRC-1, concentration 2.5): 10.6184% | % inhibition T4 10' 5 (DRC-1, concentration 5): 9.797% | % inhibition T4 10' 10 (DRC-1, concentration 10): 12.6946% | % inhibition T4 10' 20 (DRC-1, concentration 20): 6.887% | % inhibition T4 10' 40 (DRC-1, concentration 40): 15.6951% | % inhibition T4 10' 80 (DRC-1, concentration 80): 21.8837% | % inhibition T4 70' 2.5 (DRC-1, read at 70', concentration 2.5): 10.2077% | % inhibition T4 70' 5 (DRC-1, read at 70', concentration 5): 9.3179% | % inhibition T4 70' 10 (DRC-1, read at 70', concentration 10): 12.3114% | % inhibition T4 70' 20 (DRC-1, read at 70', concentration 20): 7.7965% | % inhibition T4 70' 40 (DRC-1, read at 70', concentration 40): 14.4419% | % inhibition T4 70' 80 (DRC-1, read at 70', concentration 80): 19.0676% | % inhibition T4 130' 2.5 (DRC-1, read at 130', concentration 2.5): 10.8947% | % inhibition T4 130' 5 (DRC-1, read at 130', concentration 5): 9.975% | % inhibition T4 130' 10 (DRC-1, read at 130', concentration 10): 11.1726% | % inhibition T4 130' 20 (DRC-1, read at 130', concentration 20): 8.154% | % inhibition T4 130' 40 (DRC-1, read at 130', concentration 40): 14.6568% | % inhibition T4 130' 80 (DRC-1, read at 130', concentration 80): 18.4293% | % inhibition T4 10' 2.5 (DRC-2, concentration 2.5): -8.57% | % inhibition T4 10' 5 (DRC-2, concentration 5): -11% | % inhibition T4 10' 10 (DRC-2, concentration 10): -3.21% | % inhibition T4 10' 20 (DRC-2, concentration 20): -7% | % inhibition T4 10' 40 (DRC-2, concentration 40): 3.18% | % inhibition T4 10' 80 (DRC-2, concentration 80): 12% | % inhibition T4 40' 2.5 (DRC-2, read at 40', concentration 2.5): -8% | % inhibition T4 40' 5 (DRC-2, read at 40', concentration 5): -11% | % inhibition T4 40' 10 (DRC-2, read at 40', concentration 10): -5.5% | % inhibition T4 40' 20 (DRC-2, read at 40', concentration 20): -8% | % inhibition T4 40' 40 (DRC-2, read at 40', concentration 40): -2.76% | % inhibition T4 40' 80 (DRC-2, read at 40', concentration 80): -1.54% | % inhibition T4 90' 2.5 (DRC-2, read at 90', concentration 2.5): -7% | % inhibition T4 90' 5 (DRC-2, read at 90', concentration 5): -9.49% | % inhibition T4 90' 10 (DRC-2, read at 90', concentration 10): -3.47% | % inhibition T4 90' 20 (DRC-2, read at 90', concentration 20): -7% | % inhibition T4 90' 40 (DRC-2, read at 90', concentration 40): -4.46% | % inhibition T4 90' 80 (DRC-2, read at 90', concentration 80): -9% | % inhibition T4 180' 2.5 (DRC-2, read at 180', concentration 2.5): -11% | % inhibition T4 180' 5 (DRC-2, read at 180', concentration 5): -15% | % inhibition T4 180' 10 (DRC-2, read at 180', concentration 10): -8% | % inhibition T4 180' 20 (DRC-2, read at 180', concentration 20): -11% | % inhibition T4 180' 40 (DRC-2, read at 180', concentration 40): -7.51% | % inhibition T4 180' 80 (DRC-2, read at 180', concentration 80): -14%

O=C(Nc1ccc2c(c1)Cc1cc(NC(=O)c3ccco3)ccc1-2)c1ccco1 [KU0038977]
% inhibition T4 10' (DRC-2, concentration 80): 20% | % inhibition T4 40' (DRC-2, concentration 20): 25% | % inhibition T4 40' (DRC-2, concentration 40): 35% | % inhibition T4 90' (DRC-2, concentration 20): 25% | % inhibition T4 90' (DRC-2, concentration 40): 35% | % inhibition T4 90' (DRC-2, concentration 80): 35% | % inhibition T4 180' (DRC-2, concentration 20): 20%

O=C(NC(C(Cl)Cl)S(=O)(=O)c1ccccc1)c1ccccc1 (stereo not shown) [KU0045239]
% inhibition T4 10' (DRC-2, concentration 10): -19% | % inhibition T4 40' (DRC-2, concentration 5): -21% | % inhibition T4 40' (DRC-2, concentration 10): -19% | % inhibition T4 40' (DRC-2, concentration 20): -26% | % inhibition T4 40' (DRC-2, concentration 40): -26% | % inhibition T4 90' (DRC-2, concentration 2.5): -26% | % inhibition T4 90' (DRC-2, concentration 5): -17% | % inhibition T4 90' (DRC-2, concentration 20): -18% | % inhibition T4 90' (DRC-2, concentration 40): -18% | % inhibition T4 180' (DRC-2, concentration 5): -21% | % inhibition T4 180' (DRC-2, concentration 10): -18% | % inhibition T4 180' (DRC-2, concentration 20): -17%

O=c1[nH]c2ccc([N+](=O)[O-])cc2c(-c2ccccc2)c1Sc1nc2ccccc2o1 [KU0067471]
% inhibition T4 10' (DRC-2, concentration 10): 35% | % inhibition T4 10' (DRC-2, concentration 20): 35% | % inhibition T4 40' (DRC-2, concentration 10): 36% | % inhibition T4 40' (DRC-2, concentration 40): 48% | % inhibition T4 40' (DRC-2, concentration 80): 47% | % inhibition T4 90' (DRC-2, concentration 2.5): 11% | % inhibition T4 90' (DRC-2, concentration 20): 36% | % inhibition T4 90' (DRC-2, concentration 40): 47% | % inhibition T4 90' (DRC-2, concentration 80): 48% | % inhibition T4 180' (DRC-2, concentration 5): 11% | % inhibition T4 180' (DRC-2, concentration 80): 47%
